From patent US11419902B2, “Compositions comprising bacterial strains” (4D Pharma Research Limited, priority 2018, dated 2022) come the findings set out here.

One experiment deals with IL-6. Description: IL-6 secretion by astrocytoma cell line U373 (ELISA). It counts as cell-based, Human. The note with it: U373 cells, 100 μl bacteria supernatant, 24 h, vs untreated and YCFA+ controls. (In an ELISA, binding on a coated surface is turned into a signal by an enzyme label.)
For a further experiment, the system named is IL-6, CD11b, TLR4. Description: Gene expression in the brain of BALB/c mice (qPCR). Type of experiment: in vivo. The note with it: vs vehicle control. As to the method:
BALB/c mice were administered live biotherapeutic and tissues were isolated for analysis of gene expression using qPCR.
A general note: Real-time PCR tracks product formation cycle by cycle.

The test system of the next experiment is MAP2. Description: MAP2 gene expression in SKMEL2 cell line (qPCR). Type of experiment: cell-based. Particulars: SKMEL2, relative to both negative controls (cell line only, and YCFA+). As to the method: Cells were plated in 12-well plates at density of 2×10^5 cells/well. After 24 h cells were treated with either DMSO or Vemurafenib (662005; EMD Millipore; VEMU; SKMEL28, SKMEL31, 451Lu, HT29 (1 μM) SKMEL2 (10 μM) or Azacytidine-C (A3656; Sigma Aldrich; AzaC; 5 μg/ml) or both drugs (VEMU+Aza) together, in presence of 10% bacteria supernatants or absence of it (YCFA+). Total RNA was extracted using the RNeasy mini kit (Qiagen, Manchester, UK) according to the manufacturer's instructions, and the RNA concentration was determined by spectrophotometer at 260/280 nm (NanoDrop ND-1000; Thermo Fisher Scientific, Loughborough). For mRNA expression analysis, cDNA was prepared from 2000 ng of total RNA using the High-Capacity cDNA reverse transcription kit (Thermo Fisher, Loughborough) according to the manufacturer's instructions. The reverse transcription reactions were performed in a thermocycler (Biometra, Germany) at 25° C. for 10 min, 37° C. for 120 min, and 85° C. for 5 min Resulting cDNA was amplified in duplicates by the SYBR-Green PCR assay, and products were detected on QuantStudio 6 flex real-time PCR machine (Applied Biosystems, UK) using a standardised profile (initial denaturation of 95° C. for 10 minutes, followed by 40 cycles of 10 seconds of denaturation at 95° C. and 30 seconds of annealing/extension at 65° C.). […]

The test system of a further experiment is splenocytes. Description: Spleen cytokine assay (ex-vivo splenocyte assay). It counts as in vivo, mouse. Particulars: mice administered MRx0029. As to the method:
Animals were allowed to habituate to their holding room for one week after arrival into the animal unit. They receive oral gavage (200 μL dose) of live biotherapeutics at a dose of 1×10^9 CFU for 6 consecutive days between 15:00 and 17:00. On day 7, the animals are decapitated, and tissues are harvested for experimentation.
Spleens were collected immediately in 5 mL RPMI media following sacrifice and cultured immediately. Spleen cells were first homogenised in this RPMI media, followed by 5 mins incubation with 1 ml of RBC lysis buffer (11814389001 ROCHE, Sigma). A further 10 ml of RPMI media was added, followed by 200G centrifugation for 5 mins. The supernatant was then filtered through 40 um strainer. Cells were counted and seeded (4,000,000/mL media). After 2.5 h of adaptation, cells were stimulated with lipopolysaccharide (LPS-2 μg/ml) or concanavalin A (ConA-2.5 μg/ml) for 24 h. Following stimulation, the supernatants were harvested to assess the cytokine release using Proinflammatory Panel 1 (mouse) V-PLEX Kit (Meso Scale Discovery, Maryland, USA) for TNF-α, IL-10, IL-1β, Interferon γ, CXCL2 and IL6. The analyses were performed using MESO QuickPlex SQ 120, SECTOR Imager 2400, SECTOR Imager 6000, SECTOR S 600.
The ex-vivo splenocyte assay involves challenging the splenocytes (cells isolated from the spleen—a main organ involved in immune defence), with a bacterio- or viral-mimetic challenge.

The test system of a further experiment is HDAC. Kind of experiment: HDAC inhibition on whole HT-29 cells. It counts as cell-based. As to the method: Pure cultures of bacteria were grown anaerobically in YCFA+ broth until they reached their stationary growth phase. Cultures were centrifuged at 5,000×g for 5 minutes and the cell-free supernatant (CFS) was filtered using a […] (Millipore, UK). 1 mL aliquots of the CFS were stored at −80° C. until use. Sodium butyrate, hexanoic and valeric acid were obtained from Sigma Aldrich (UK) and suspensions were prepared in YCFA+ broth.
To investigate which metabolites were responsible for the strain-induced HDAC inhibition, different concentrations of hexanoic acid, valeric acid and sodium butyrate were measured for their HDAC inhibition on whole HT-29 cells and on HT-29 cell lysate.

Another experiment concerns PBMCs. Kind of experiment: Cytokine analysis of PBMCs from healthy donors (multiplex immunoassay). Type of experiment: cell-based, human. Particulars: PBMC culture, 10% bacteria supernatant, 72 h. As to the method:
Frozen healthy human PBMCs were purchased from Stem Cells Technologies (Cambridge UK). Briefly cells were thaw and left to rest overnight in full growth media (RPMI 1640 with 10% FBS, 2 mM L. Glutamine, 55 μM 2-Mercapoethanol and 100 U/ml penicillin, 100 μg/ml streptomycin) in CO2 incubator at 37° C. For the experiment cells were plated at a density of 750,000 Cell/well in 48 well plates and treated in full growth media with 10% bacteria supernatants in the presence or absence of 1 ng/ml LPS. Cell culture media was added to untreated wells. Cells were left to rest for 72 h, thereafter cell free supernatants were collected and spun down for 3 minutes at 10,000 g at 4° C. Samples were stored at −80° C. for cytokine analysis.
PBMCs were treated as described in Example 5.
Cytokine quantification was conducted using a ProcartaPlex multiplex immunoassay following the manufacturer's recommendations (Thermo Fischer Scientific). Briefly, 50 μl of cell-free co-culture supernatants were used for cytokine quantification using a MAGPIX® MILLIPLEX® system (Merck) with the xPONENT software (Luminex, Austin, Tex., USA). Data was analysed using the MILLIPLEX® analyst software (Merck) using a 5-parameter logistic curve and background subtraction to convert mean fluorescence intensity to pg/ml values.

Take Megasphaera massiliensis MRx0029: in the experiment with IL-6, the IL-6 secretion result is “upregulates IL-6 secretion”. In the experiment with IL-6, CD11b, TLR4, the “TLR4 expression in the amygdala” value is “significantly increase TLR4 expression”. The MAP2 gene expression result in the experiment with MAP2 was “increased MAP2 gene expression”. In addition, in the experiment on splenocytes (following a challenge with LPS), the “interferon-γ production from splenocytes” value is given as “reduction”, the “interleukin-1β production from splenocytes” value is listed as “reduction” and the “interleukin-6 production from splenocytes” value is given as “reduction”. For the same substance, the “levels of the chemoattractant CXCL1 from splenocytes” value in the experiment on splenocytes is “increase in the levels of the chemoattractant CXCL1”. Moreover, in the experiment on HDAC, the “HDAC inhibition on whole HT-29 cells” value was “strong HDAC inhibition”. Further, in the experiment on PBMCs, the “expression of IL-1β” value was “increased the expression”, the “expression of IL-6” value is “increased the expression”, the “expression of IL-10” value is on record as “increased the expression” and the “expression of IL-23” value is given as “increased the expression”. Also, in the experiment on PBMCs, the “expression of MIP-3α” value was “increased the expression” and the “expression of TNF-α” value is “increased the expression”.
